Test results published in article PMC6278664, “Highly Cancer Selective Antiproliferative Activity of Natural Prenylated Flavonoids” (Molecules, 2018).

Test system: not given
Assay: not given
Conditions: in vivo; cited from earlier work

Substance | Glucuronidation [%]
8-(3,3-dimethylallyl)-4,7-dihydroxy-5-methoxyflavanone [IXN] | > 90

Test system: MCF7 human breast cancer cell line
Assay: SRB antiproliferative assay, MCF7
Format: cell-based
Conditions: IC50 HLMEC / IC50 MCF-7
Protocol: (§1) We determined the effect of various structural factors in the substrates on the antiproliferative activity against those selected to the study cell lines: the location and/or the presence of the prenyl group, the chalcone/flavanone skeleton and the presence of an O-methyl group at C-5 in flavanones. Flavonoids presented in Figure 1 were tested for the antiproliferative activity towards eight cancer cell lines including estrogen-dependent (MCF7 and T-47D) and two normal ones (HLMEC and MCF 10A). The in vitro antiproliferative activity was measured using SRB assay. The results are presented in Figure 2 (and in the supplement in Table S1). The antiproliferative activity was measured separately for each of the experiments and given as the average IC50 (the concentration of tested compound which inhibits 50% of the cells population). Cisplatin (CP), a common anticancer drug, was used as a positive control.
(§2) The following established in vitro cell lines were applied: MCF7, T-47D, MDA-MB-231 (human breast cancer cell line), A2780 (human ovarian cancer cell line), A2780cis (human cisplatin-resistant ovarian cancer cell line), PC-3 and DU 145 (human prostate cancer cell lines), HT-29 (human colon cancer cell line), HLMEC (human lung microvascular endothelial cell line), and MCF 10A (human mammary epithelial cells line).
(§3) The cell lines: MDA-MB-231, HT-29, PC-3, DU 145, and MCF 10A were obtained from the American Type Culture Collection (Rockville, MD, USA), MCF7, T-47D, A2780, A2780cis from the European Collection Cell Cultures (Sigma-Aldrich, Chemie GmbH, Steinheim, Germany), while the HLMEC cell line was obtained by M. Paprocka from the institute. All cell lines are being maintained in the Institute of Immunology and Experimental Therapy (Wrocław, Poland). DU 145 and MCF7 cells were cultured in Eagle medium (supplemented with 4mM L-glutamine, 10% fetal bovine serum, 1 mM sodium pyruvate for DU 145 cells or 2 mM L-glutamine, 1% mem non-essential amino acid solution and 8 µg/mL insulin and 10% fetal bovine serum for MCF7). […] HT-29 and T-47D cell lines were cultured in RPMI 1640 + OPTI-MEM medium supplemented with 2 mM L-glutamine, 5% fetal bovine serum and 8 µg/mL of insulin (T-47D) or 1 mM sodium pyruvate (HT-29). MDA-MB-231, PC-3 and HLMEC cell lines were cultured in RPMI 1640 medium supplemented with 2 mM L-glutamine and 10% fetal bovine serum. Medium for MCF 10A cell line consisted of F-12 nutrient mixture supplemented with cholera toxin (0.05 µg/mL), insulin (10 µg/mL), hydrocortisone (0.5 µg/mL), 5% horse serum, and EGFH (20 ng/mL). All the culture media contained antibiotics: 100 units/mL penicillin (Polfa Tarchomin SA, Warsaw, Poland), and 100 µg/mL streptomycin (Sigma-Aldrich, Chemie GmbH, Steinheim, Germany). All cell lines were grown at 37 °C with 5% CO2 humidified atmosphere.
(§4) Twenty-four hours before the incubation with the tested compounds, the cells were seeded in 96-plates (Sarstedt, Germany) at a density of 1 × 10^4 cells per well (0.75 × 10^4 per well for MCF7 and 1 × 10^3 per well for HLMEC) in 100 µL of a culture medium.
(§5) Each agent at each concentration (from 0.1 to 100 µg/mL) was tested in a single experiment, which was repeated four to five times. […] Cisplatin was used as a reference drug.
(§6) The results were calculated as the IC50 (inhibitory concentration 50%)—the concentration of the tested compound which inhibits 50% of the cells population. IC50 values were calculated for each experiment separately and mean values ± SD are presented in the Table S1 in the Supplementary Materials. Each compound at each concentration was tested in triplicate in a single experiment, which was repeated four to five times.
(§7) The cells were fixed in situ by gently adding cold 50% trichloroacetic acid (50 µL per well). The plates were incubated at 4 °C for 1h and then washed five times with tap water. […]

Substance | Selectivity index SIA, MCF-7
8-(3,3-dimethylallyl)-4,7-dihydroxy-5-methoxyflavanone [IXN] | 0.75

Same assay, conditions: IC50 MCF-10A / IC50 MCF-7

Substance | Selectivity index SIB, MCF-7
8-(3,3-dimethylallyl)-4,7-dihydroxy-5-methoxyflavanone [IXN] | 4.31

Same assay, conditions: SRB, 72 h, mean ± SD

Substance | IC50 [µM]
8-(3,3-dimethylallyl)-4,7-dihydroxy-5-methoxyflavanone [IXN] | 16.7 ± 0.88

Test system: MCF 10A human mammary epithelial cells line
Assay: SRB antiproliferative assay, MCF 10A (normal)
Format: cell-based
Conditions: 72 h, mean ± SD, read-out: Normal cell line, IC50, MCF-10A
Protocol: as §1, §2, §3, §4, §5, §6, §7

Substance | IC50 [µM]
8-(3,3-dimethylallyl)-4,7-dihydroxy-5-methoxyflavanone [IXN] | 72.1 ± 21.7

Test system: A2780 human ovarian cancer cell line
Assay: SRB antiproliferative assay, A2780
Format: cell-based
Conditions: IC50 HLMEC / IC50 A-2780
Protocol: as §1, §2, §3, §4, §5, §6, §7

Substance | Selectivity index SIA, A-2780
8-(3,3-dimethylallyl)-4,7-dihydroxy-5-methoxyflavanone [IXN] | 1.58

Same assay, conditions: IC50 MCF-10A / IC50 A-2780

Substance | Selectivity index SIB, A-2780
8-(3,3-dimethylallyl)-4,7-dihydroxy-5-methoxyflavanone [IXN] | 9.09

Same assay, conditions: SRB, 72 h, mean ± SD; read-out: Cancer cell line, IC50, A-2780

Substance | IC50 [µM]
8-(3,3-dimethylallyl)-4,7-dihydroxy-5-methoxyflavanone [IXN] | 7.93 ± 1.65

Test system: PC-3 human prostate cancer cell line
Assay: SRB antiproliferative assay, PC-3
Format: cell-based
Conditions: IC50 HLMEC / IC50 PC-3
Protocol: as §1, §2, §3, §4, §5, §6, §7

Substance | Selectivity index SIA, PC-3
8-(3,3-dimethylallyl)-4,7-dihydroxy-5-methoxyflavanone [IXN] | 0.23

Same assay, conditions: IC50 MCF-10A / IC50 PC-3

Substance | Selectivity index SIB, PC-3
8-(3,3-dimethylallyl)-4,7-dihydroxy-5-methoxyflavanone [IXN] | 1.35

Same assay, conditions: SRB, 72 h, mean ± SD

Substance | IC50 [µM]
8-(3,3-dimethylallyl)-4,7-dihydroxy-5-methoxyflavanone [IXN] | 53.2 ± 10.6

Test system: T-47D human breast cancer cell line
Assay: SRB antiproliferative assay, T-47D
Format: cell-based
Conditions: IC50 HLMEC / IC50 T-47D
Protocol: as §1, §2, §3, §4, §5, §6, §7

Substance | Selectivity index SIA, T-47D
8-(3,3-dimethylallyl)-4,7-dihydroxy-5-methoxyflavanone [IXN] | 0.47

Same assay, conditions: IC50 MCF-10A / IC50 T-47D

Substance | Selectivity index SIB, T-47D
8-(3,3-dimethylallyl)-4,7-dihydroxy-5-methoxyflavanone [IXN] | 2.70

Same assay, conditions: SRB, 72 h, mean ± SD

Substance | IC50 [µM]
8-(3,3-dimethylallyl)-4,7-dihydroxy-5-methoxyflavanone [IXN] | 26.8 ± 6.44

Test system: DU 145 human prostate cancer cell line
Assay: SRB antiproliferative assay, DU 145
Format: cell-based
Conditions: IC50 HLMEC / IC50 Du-145
Protocol: as §1, §2, §3, §4, §5, §6, §7

Substance | Selectivity index SIA, Du-145
8-(3,3-dimethylallyl)-4,7-dihydroxy-5-methoxyflavanone [IXN] | 0.21

Same assay, conditions: IC50 MCF-10A / IC50 Du-145

Substance | Selectivity index SIB, Du-145
8-(3,3-dimethylallyl)-4,7-dihydroxy-5-methoxyflavanone [IXN] | 1.22

Same assay, conditions: SRB, 72 h, mean ± SD

Substance | IC50 [µM]
8-(3,3-dimethylallyl)-4,7-dihydroxy-5-methoxyflavanone [IXN] | 59.2 ± 5.73

Test system: HLMEC human lung microvascular endothelial cell line
Assay: SRB antiproliferative assay, HLMEC (normal)
Format: cell-based
Conditions: 72 h, mean ± SD

Substance | IC50 [µM]
8-(3,3-dimethylallyl)-4,7-dihydroxy-5-methoxyflavanone [IXN] | 12.5 ± 5.65

Test system: MDA-MB-231 human breast cancer cell line
Assay: SRB antiproliferative assay, MDA-MB-231
Format: cell-based
Conditions: IC50 HLMEC / IC50 MDA-MB-231
Protocol: as §1, §2, §3, §4, §5, §6, §7

Substance | Selectivity index SIA, MDA-MB-231
8-(3,3-dimethylallyl)-4,7-dihydroxy-5-methoxyflavanone [IXN] | 0.29

Same assay, conditions: IC50 MCF-10A / IC50 MDA-MB-231

Substance | Selectivity index SIB, MDA-MB-231
8-(3,3-dimethylallyl)-4,7-dihydroxy-5-methoxyflavanone [IXN] | 1.66

Same assay, conditions: SRB, 72 h, mean ± SD

Substance | IC50 [µM]
8-(3,3-dimethylallyl)-4,7-dihydroxy-5-methoxyflavanone [IXN] | 43.3 ± 10.3

Test system: HT-29 human colon cancer cell line
Assay: SRB antiproliferative assay, HT-29
Format: cell-based
Conditions: IC50 HLMEC / IC50 HT-29

Substance | Selectivity index SIA, HT-29
8-(3,3-dimethylallyl)-4,7-dihydroxy-5-methoxyflavanone [IXN] | 0.41

Same assay, conditions: IC50 MCF-10A / IC50 HT-29

Substance | Selectivity index SIB, HT-29
8-(3,3-dimethylallyl)-4,7-dihydroxy-5-methoxyflavanone [IXN] | 2.36

Same assay, conditions: SRB, 72 h, mean ± SD

Substance | IC50 [µM]
8-(3,3-dimethylallyl)-4,7-dihydroxy-5-methoxyflavanone [IXN] | 30.6 ± 1

Test system: A2780cis human cisplatin-resistant ovarian cancer cell line
Assay: SRB antiproliferative assay, A2780cis
Format: cell-based
Conditions: IC50 HLMEC / IC50 A-2780cis
Protocol: as §1, §2, §3, §4, §5, §6, §7

Substance | Selectivity index SIA, A-2780cis
8-(3,3-dimethylallyl)-4,7-dihydroxy-5-methoxyflavanone [IXN] | 1.07

Same assay, conditions: IC50 MCF-10A / IC50 A-2780cis

Substance | Selectivity index SIB, A-2780cis
8-(3,3-dimethylallyl)-4,7-dihydroxy-5-methoxyflavanone [IXN] | 6.19

Same assay, conditions: SRB, 72 h, mean ± SD; read-out: Cancer cell line, IC50, A-2780cis

Substance | IC50 [µM]
8-(3,3-dimethylallyl)-4,7-dihydroxy-5-methoxyflavanone [IXN] | 11.7 ± 1.44
